Data published in PMC4865845, “A human genome-wide loss-of-function screen identifies effective chikungunya antiviral drugs” (Nature Communications, 2016).

Each substance was assayed on CHIKV.
Format: cell-based, chikungunya virus

First: Hs_MGC11102_1 (TAGCGTGGCTTTAAACATATA; chemistry not given here)
Second: Hs_MGC21830_2 (CAGCTGGGCGGTGCTGTTCGA; chemistry not given here) [reference compound]
The Score_si2 of the first is higher: 1.11 for the first, -1.02 for the second.

First: Hs_MRPS12_2 (CTGCTGGGACAAGACACTGTA; chemistry not given here)
Second: Hs_NAG_1 (CAGAGGAAGATTGAAAGTGAA; chemistry not given here)
The Score_si2 of the first is lower: 1.92 for the first, 2.12 for the second.

Going from “Hs_NCOA1_1 (CAGCGGGAACTGTACAGTCAA; chemistry not given here)” to “Hs_NPAT_1 (ACCAATGCACATATAATTTAA; chemistry not given here) [reference compound]”, the Score_si2 falls from 1.96 to -1.26.

Compared with “Hs_NPEPL1_2 (CACCTTCCTCGAGGAGATTAA; chemistry not given here)”, “Hs_NRCAM_3 (GACGTTTGGTTTAAAGAATTA; chemistry not given here)” is lower in Score_si2: 1.71 for the first, 0.93 for the second.

Compared with “Hs_NRD1_2 (AAGGCTTTCGATTGCCCGGAA; chemistry not given here)”, “Hs_NUDT1_4 (CCGGGTTTCATCTGGAATTAA; chemistry not given here)” is higher in Score_si2: 1.41 for the first, 1.96 for the second.

Going from “Hs_P4HB_5 (CAGGACGGTCATTGATTACAA; chemistry not given here)” to “Hs_PCBP1_3 (CACAACTTTATCATCCGCTAA; chemistry not given here)”, the Score_si2 rises from 1.15 to 1.85.

First: Hs_PDLIM5_5 (CAGCAGGGAAACGAACTCCGA; chemistry not given here)
Second: Hs_PEX19_4 (CTGGATCTTATGCAGCAGCTA; chemistry not given here)
The Score_si2 of the first is higher: 1.07 for the first, 0.89 for the second.

Going from “Hs_PHF10_3 (CGGACAGTTCCAGGAATATTA; chemistry not given here)” to “Hs_PITRM1_3 (CAGCGTTGAAAGTTTCCGATA; chemistry not given here) [reference compound]”, the Score_si2 falls from 0.88 to -1.16.

Compared with “Hs_POLR1A_2 (TCGGGAGGAATTAGAACAATA; chemistry not given here)”, “Hs_PP3856_1 (CTGGACAGTGGTGACCTGCTA; chemistry not given here)” is higher in Score_si2: 1.23 for the first, 1.53 for the second.

First: Hs_PPIL2_3 (CACCAATTTGGACAAGTTCAA; chemistry not given here)
Second: Hs_PPP1R8_6 (TACAAATAAAGATGCCCTAAA; chemistry not given here)
The Score_si2 of the first is higher: 1.2 for the first, 0.7 for the second.

Going from “Hs_PRSS15_2 (sense CAGCCTTATGTCGGCGTCTTT; chemistry not given here)” to “Hs_PTBP1_5 (sense CACGCACATTCCGTTGCCTTA; chemistry not given here) [reference compound]”, the Score_si2 falls from 1.66 to -1.23.

Compared with “Hs_MGC11102_2 (CAGGTGGTTTGTTCTTTCTTA; chemistry not given here)”, “Hs_MGC13138_1 (CTGGCATTTCCCGCTCATTTA; chemistry not given here) [reference compound]” is lower in Score_si1: 1.25 for the first, -2.19 for the second.

Going from “Hs_MGC21830_1 (CCGGAGACAGCGGCTGATTTA; chemistry not given here) [reference compound]” to “Hs_MRPS12_7 (TTCCATCAGGACCACTATTAA; chemistry not given here)”, the Score_si1 rises from -1.05 to 1.99.

First: Hs_NAG_2 (CAGACAGAAATTCTTTATCAA; chemistry not given here)
Second: Hs_NCOA1_14 (CTCCTAATATTTCGACATTAA; chemistry not given here)
The Score_si1 of the first is higher: 2.66 for the first, 2.06 for the second.

Going from “Hs_NDUFA2_2 (TCCACTGAGGATTAAGAGCAA; chemistry not given here)” to “Hs_NDUFA7_1 (CAGGGAGAATGTGACCTAATT; chemistry not given here) [reference compound]”, the Score_si1 falls from 2.51 to -2.23.

Going from “Hs_NPAT_2 (AAGGCACATCTTCAAACAATA; chemistry not given here) [reference compound]” to “Hs_NPEPL1_3 (CTGCAATGAGATGAACACCGA; chemistry not given here)”, the Score_si1 rises from -1.61 to 2.35.

Going from “Hs_NRCAM_4 (AGGGTGGTAAATATCCAGTTA; chemistry not given here)” to “Hs_NUDT1_5 (CCGCGAGGTGGACACGGTCTA; chemistry not given here)”, the Score_si1 rises from 1.08 to 2.08.

Going from “Hs_ODZ3_1 (CCGGGCTGTGTCAAAGAATAA; chemistry not given here)” to “Hs_P4HB_6 (AAGATGAACTGTAATACGCAA; chemistry not given here)”, the Score_si1 falls from 1.47 to 1.38.

Going from “Hs_PCBP1_2 (TAAGAGTGGAATGTTAATAAA; chemistry not given here)” to “Hs_PCQAP_1 (CCGCATGATCAACAAGATCGA; chemistry not given here) [reference compound]”, the Score_si1 falls from 1.94 to -1.12.

Compared with “Hs_PD2_2 (CACCATTATTGTGAGCAGCAA; chemistry not given here)”, “Hs_PDLIM5_3 (AAGAGACGGTTTGGCATTTAT; chemistry not given here)” is lower in Score_si1: 1.77 for the first, 1.17 for the second.

First: Hs_PEX19_1 (ATGGGTGGCTTCATGAATTAA; chemistry not given here)
Second: Hs_PGD_1 (TAGAAGTGTATTCCTAGGAAA; chemistry not given here)
The Score_si1 of the first is lower: 1.26 for the first, 3.09 for the second.

First: Hs_PHF10_5 (ATGGCAGTGTATGGAATGTAA; chemistry not given here)
Second: Hs_PITRM1_1 (TAGGTTCTTCACGTACGGTAA; chemistry not given here) [reference compound]
The Score_si1 of the first is higher: 2.93 for the first, -1.2 for the second.

Compared with “Hs_POLDIP3_2 (CCGGCTCAAACTGGGAGTCAA; chemistry not given here)”, “Hs_POLR1A_1 (AAGGTTGATGACTACAGTCAA; chemistry not given here)” is lower in Score_si1: 2.49 for the first, 1.93 for the second.

First: Hs_POU3F2_2 (AAGATGAAAGTTACCACTGAA; chemistry not given here)
Second: Hs_PP3856_2 (CTGGCTGGAGTCAGTCCTCAT; chemistry not given here)
The Score_si1 of the first is higher: 2.65 for the first, 2.53 for the second.

Compared with “Hs_PPIL2_2 (AAGGAGGAGATCCGCATTGAT; chemistry not given here)”, “Hs_PRPF4B_5 (sense TCGTCTGATGATAACCTTGAA; chemistry not given here)” is higher in Score_si1: 1.35 for the first, 2.38 for the second.

First: Hs_PRPF40A_2 (sense CTGGAAAGCCTTACTATTATA; chemistry not given here)
Second: Hs_PRSS15_4 (sense CCGGGACATCATTGCCTTGAA; chemistry not given here)
The Score_si1 of the first is higher: 2.41 for the first, 1.74 for the second.

Compared with “Hs_PSD3_1 (sense CTCCATTGTCTTACTAACAAA; chemistry not given here) [reference compound]”, “Hs_PTBP1_2 (sense ATGGTATGAGTGTAATCTAAA; chemistry not given here) [reference compound]” is higher in Score_si1: -3.63 for the first, -1.35 for the second.

Compared with “Hs_NPEPL1_1 (CTGATTTATAGGGCAAGAGAA; chemistry not given here)”, “Hs_NRCAM_2 (AACGCTCATAATTAACATCAT; chemistry not given here)” is lower in Score_si4: 1.11 for the first, 0.35 for the second.

First: Hs_NRD1_3 (CAAGCAATACCGATACATCAA; chemistry not given here)
Second: Hs_ODZ3_2 (CCCAAATTTGATTTAACAGAA; chemistry not given here)
The Score_si4 of the first is higher: 0.87 for the first, 0.82 for the second.

Compared with “Hs_PD2_1 (ACCGAGGAAGAAATATACAAA; chemistry not given here)”, “Hs_PEX19_3 (CCCATTCAAGATTGTGCCATA; chemistry not given here)” is lower in Score_si4: 1.16 for the first, 0.41 for the second.

Going from “Hs_PITRM1_2 (CCGGTGAATTACGTGGGTGAA; chemistry not given here) [reference compound]” to “Hs_PMPCB_4 (TACATTTATAATAGGAGTCCA; chemistry not given here)”, the Score_si4 rises from -0.68 to 0.83.

Compared with “Hs_PPIL2_1 (CAGGGACAGCCTATTTATACA; chemistry not given here)”, “Hs_PRPF4B_2 (sense CACCCTTAAATCGTTATTAAT; chemistry not given here)” is lower in Score_si4: 0.92 for the first, 0.63 for the second.

Compared with “Hs_PRSS15_3 (sense TAGAAGCTATTTAATGATTAA; chemistry not given here)”, “Hs_PSD3_2 (sense ACCAAACGTGTTTAAACTTAA; chemistry not given here) [reference compound]” is lower in Score_si4: 1.21 for the first, -0.52 for the second.

For “Hs_PTBP1_18 (sense GCGCGTGAAGATCCTGTTCAA; chemistry not given here) [reference compound]”, the Score_si4 was -0.53.

Compared with “Hs_NPEPL1_4 (CAGAATTCACTTGAGGTTCAA; chemistry not given here)”, “Hs_NRCAM_1 (CAGGCCTTCAGTACAAAGTTA; chemistry not given here)” is lower in Score_si3: 1.44 for the first, 0.75 for the second.

First: Hs_NRD1_1 (CAGGGTGAAGCCACTTCATTA; chemistry not given here)
Second: Hs_ODZ3_4 (CACGAGGAAACTACAATTCCA; chemistry not given here)
The Score_si3 of the first is higher: 1.32 for the first, 1 for the second.

First: Hs_P4HB_2 (CTATTTCACAATCGAATTGAA; chemistry not given here)
Second: Hs_PCQAP_10 (CAGCATCTAATTAAATTGCAT; chemistry not given here) [reference compound]
The Score_si3 of the first is higher: 1.09 for the first, -0.74 for the second.

Compared with “Hs_PDLIM5_6 (TCCGATGTGCGCCCATTGTAA; chemistry not given here)”, “Hs_PEX19_2 (TCCCTTGAGTATTTCAATGTA; chemistry not given here)” is lower in Score_si3: 0.87 for the first, 0.58 for the second.

Going from “Hs_PHF10_4 (TCCAGGGAAGACAGAAATCAA; chemistry not given here)” to “Hs_PPP1R8_8 (AACCCTGAAGCTGTAAATGAA; chemistry not given here)”, the Score_si3 rises from 0.57 to 0.62.

Compared with “Hs_PPP1R15A_3 (CAGGATCAGCCGAGGATGAAA; chemistry not given here)”, “Hs_PTBP1_3 (sense CGACATAATCTCTGTATTATA; chemistry not given here) [reference compound]” is lower in Score_si3: 1.25 for the first, -0.58 for the second.

“Hs_PTPN4_3 (sense AGCACGTACCTTAGAACTCTA; chemistry not given here)” showed a Score_si3 of 1.47.
